The values that follow come from patent publication US5677148A (priority 1995, dated 1997).

The data set concerns A431 cells. The data set is described as follows: Sensitivity of DAB-EGF chimeric toxin cytotoxicity to chloroquine ([3H]leucine incorporation). Conditions: for activity at 10 µM: Homo sapiens; for Percent of Control Incorporation: 20-hour incubation.

Like-named read-outs stand apart in the source and are kept apart here.

Protocol: To determine if the cytotoxicity of DAB486 EGF and DAB389 EGF is also dependent upon the same pathway, A431 cells were plated in sextuplicate wells of 96 well plates containing DAB486 EGF, DAB389 EGF or DMEM+10% FCS in the absence or presence of chloroquine (10^-5 M) (Sigma). […] Following a 20-hour incubation at 37° C., the cells were labeled with [^3 H] leucine, trypsinized, harvested onto glass fiber filter mats and counted.

As to `CCN(CC)CCCC(C)Nc1ccnc2cc(Cl)ccc12` (stereo not shown) [Chloroquine], the activity at 10 µM came out at 73% (A-431, read-out: Percent of Control Incorporation, chloroquine 10^-5 M, DAB389 EGF concentration 0, 20-hour incubation at 37° C., [3H]leucine, mean of three experiments) and 86% (A-431, read-out: Percent of Control Incorporation, chloroquine 10^-5 M, DAB486 EGF concentration 0, 20-hour incubation at 37° C., [3H]leucine, mean of three experiments). For the same molecule, the “Percent of Control Incorporation” value reads like this: (chloroquine 10^-5 M with DAB389 EGF 10^-11 M, [3H]leucine (no addition: 4)) 61%; (chloroquine 10^-5 M with DAB389 EGF 10^-12 M, [3H]leucine (no addition: 57)) 100%; (chloroquine 10^-5 M with DAB486 EGF 10^-8 M, [3H]leucine (no addition: 5)) 60%; (chloroquine 10^-5 M with DAB486 EGF 10^-9 M, [3H]leucine (no addition: 25)) 96%. The “Effect on the cytotoxicity of DT-EGF chimeric toxins” value (chloroquine 10^-5 M, A431 cells, DAB486 EGF or DAB389 EGF) is recorded as “blocks the cytotoxicity”.
